ChEMBL document CHEMBL4229332, “Novel multi-target azinesulfonamides of cyclic amine derivatives as potential antipsychotics with pro-social and pro-cognitive effects” (Eur J Med Chem, 2018)

Assays:
Cavia porcellus [1] = assay: Cardiotoxicity in guinea pig assessed as effect on QTc interval time at 5 mg/kg, ip measured after 10 mins by ECG analysis (reference value: […] to […] milliseconds); type: toxicity, organism-based; conditions: in vivo
Rattus norvegicus [2] = assay: Effect on failure incidence during conditioned avoidance response test in Sprague-Dawley rat at 3 mg/kg, ip administered 60 mins prior to testing; type: ADME, organism-based; conditions: in vivo, 1 h
Rattus norvegicus [3] = organism: Rattus norvegicus; assay: animal or person; conditions: Sprague-Dawley, ip, read-out: MED
Description: Reversal of PCP-induced cognitive impairment in ip dosed Sprague-Dawley rat assessed as reduction in time spent exploring novel object over familiar object pretreated for 60 mins followed by PCP addition by novel object recognition assay

Cavia porcellus [4] = assay: Cardiotoxicity in guinea pig assessed as effect on QT interval time at 5 mg/kg, ip measured after 20 mins by ECG analysis (reference value: 127.6 to 131.2 milliseconds); type: toxicity, organism-based; conditions: in vivo
[5] = target: 5-hydroxytryptamine receptor 2A (Homo sapiens, UniProt P28223); assay: biochemical; type: cell-based, CHO-K1
5-hydroxytryptamine receptor 2A, sequence (P28223 whole entry): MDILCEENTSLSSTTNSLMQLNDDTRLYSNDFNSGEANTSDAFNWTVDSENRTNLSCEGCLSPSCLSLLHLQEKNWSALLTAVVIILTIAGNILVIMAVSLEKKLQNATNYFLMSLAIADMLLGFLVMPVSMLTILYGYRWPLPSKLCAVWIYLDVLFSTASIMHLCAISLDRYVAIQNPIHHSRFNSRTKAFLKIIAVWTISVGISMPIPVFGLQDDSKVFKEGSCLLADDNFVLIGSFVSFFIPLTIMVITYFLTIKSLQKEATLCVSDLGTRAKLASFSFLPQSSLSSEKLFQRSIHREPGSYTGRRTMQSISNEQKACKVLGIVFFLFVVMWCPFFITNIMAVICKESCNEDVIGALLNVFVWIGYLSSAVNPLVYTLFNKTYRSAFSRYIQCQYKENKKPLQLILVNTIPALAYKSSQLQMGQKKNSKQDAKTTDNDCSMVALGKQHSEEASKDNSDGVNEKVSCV

Cavia porcellus [6] = assay: Cardiotoxicity in guinea pig assessed as effect on RR interval time at 5 mg/kg, ip measured after 40 mins by ECG analysis (reference value: 208.4 to 238.4 milliseconds); type: toxicity, organism-based; conditions: in vivo
Cavia porcellus [7] = assay: Cardiotoxicity in guinea pig assessed as effect on frequence of heart rate at 5 mg/kg, ip measured after 70 mins by ECG analysis (reference value: 262 to 296 /min); type: toxicity, organism-based; conditions: in vivo
[8] = target: Voltage-gated inwardly rectifying potassium channel KCNH2 (Homo sapiens, UniProt Q12809); assay: Inhibition of human ERG expressed in CHOK1 cells at 10 to 50 uM by whole-cell patch clamp method; type: cell-based
Voltage-gated inwardly rectifying potassium channel KCNH2, sequence (Q12809 whole entry): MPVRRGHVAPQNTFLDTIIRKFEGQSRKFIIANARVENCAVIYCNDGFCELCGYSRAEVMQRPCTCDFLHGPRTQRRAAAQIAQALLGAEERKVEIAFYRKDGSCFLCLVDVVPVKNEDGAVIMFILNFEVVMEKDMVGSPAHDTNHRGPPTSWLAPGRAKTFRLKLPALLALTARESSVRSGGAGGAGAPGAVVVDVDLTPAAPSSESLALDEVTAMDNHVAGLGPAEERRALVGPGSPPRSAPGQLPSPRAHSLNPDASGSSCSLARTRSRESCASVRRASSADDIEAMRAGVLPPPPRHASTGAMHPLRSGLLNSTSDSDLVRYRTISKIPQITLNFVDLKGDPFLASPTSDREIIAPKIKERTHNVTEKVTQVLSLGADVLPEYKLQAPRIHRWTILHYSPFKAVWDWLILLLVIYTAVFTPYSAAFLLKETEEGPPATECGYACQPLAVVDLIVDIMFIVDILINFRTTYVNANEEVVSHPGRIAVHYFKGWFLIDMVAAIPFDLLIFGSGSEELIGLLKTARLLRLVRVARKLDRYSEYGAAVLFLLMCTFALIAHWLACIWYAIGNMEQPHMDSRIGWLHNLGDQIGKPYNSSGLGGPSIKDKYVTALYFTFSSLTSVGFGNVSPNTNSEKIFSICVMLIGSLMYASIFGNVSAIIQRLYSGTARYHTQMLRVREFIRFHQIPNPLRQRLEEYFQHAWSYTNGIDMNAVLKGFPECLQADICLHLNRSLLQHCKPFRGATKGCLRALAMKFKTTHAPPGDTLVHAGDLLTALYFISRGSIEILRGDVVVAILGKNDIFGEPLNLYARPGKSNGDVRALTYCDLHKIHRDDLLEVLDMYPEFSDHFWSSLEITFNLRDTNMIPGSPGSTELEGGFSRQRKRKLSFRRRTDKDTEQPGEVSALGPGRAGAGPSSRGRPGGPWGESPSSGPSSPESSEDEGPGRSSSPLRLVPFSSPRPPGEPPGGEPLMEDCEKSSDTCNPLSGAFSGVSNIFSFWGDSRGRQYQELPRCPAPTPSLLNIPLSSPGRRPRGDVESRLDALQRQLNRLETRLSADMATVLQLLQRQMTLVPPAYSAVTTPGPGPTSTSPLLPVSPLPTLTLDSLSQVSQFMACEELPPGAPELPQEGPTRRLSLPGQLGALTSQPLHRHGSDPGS

Cavia porcellus [9] = assay: Cardiotoxicity in guinea pig assessed as effect on RR interval time at 5 mg/kg, ip measured after 10 mins by ECG analysis (reference value: 208.4 to 238.4 milliseconds); type: toxicity, organism-based; conditions: in vivo
Cavia porcellus [10] = assay: Cardiotoxicity in guinea pig assessed as effect on QRS interval time at 5 mg/kg, ip measured after 40 mins by ECG analysis (reference value: 26.2 to 31.6 milliseconds); type: toxicity, organism-based; conditions: in vivo
Cavia porcellus [11] = assay: Cardiotoxicity in guinea pig assessed as effect on frequence of heart rate at 5 mg/kg, ip measured after 10 mins by ECG analysis (reference value: 262 to 296 /min); type: toxicity, organism-based; conditions: in vivo
Rattus norvegicus [12] = organism: Rattus norvegicus; assay: animal or person; conditions: Sprague-Dawley, ip, read-out: MED; remark: listed apart in the source
Description: Reversal of ketamine-induced working social withdrawal in ip dosed Sprague-Dawley rat pretreated for 60 mins followed by ketamine administration

Rattus norvegicus [13] = assay: Cardiotoxicity in Wistar rat assessed as effect on blood pressure at 2 to 5 mg/kg, iv; type: toxicity, organism-based; conditions: in vivo
Cavia porcellus [14] = assay: Cardiotoxicity in guinea pig assessed as effect on PR interval time at 5 mg/kg, ip measured after 80 mins by ECG analysis (reference value: 58.8 to 63.8 milliseconds); type: toxicity, organism-based; conditions: in vivo
Cavia porcellus [15] = assay: Cardiotoxicity in guinea pig assessed as effect on QTc interval time at 5 mg/kg, ip measured after 80 mins by ECG analysis (reference value: […] to […] milliseconds); type: toxicity, organism-based; conditions: in vivo
Cavia porcellus [16] = assay: Cardiotoxicity in guinea pig assessed as effect on QTc interval time at 5 mg/kg, ip measured after 40 mins by ECG analysis (reference value: […] to […] milliseconds); type: toxicity, organism-based; conditions: in vivo
Cavia porcellus [17] = assay: Cardiotoxicity in guinea pig assessed as effect on QTc interval time at 5 mg/kg, ip measured after 20 mins by ECG analysis (reference value: […] to […] milliseconds); type: toxicity, organism-based; conditions: in vivo
Rattus norvegicus [18] = organism: Rattus norvegicus; assay: animal or person; conditions: Sprague-Dawley, ip, read-out: MED; remark: listed apart in the source
Description: Antipsychotic activity in ip dosed Sprague-Dawley rat assessed as suppression of avoidance behavior by avoiding foot shock administered 60 mins prior to test by conditioned avoidance response test

Cavia porcellus [19] = assay: Cardiotoxicity in guinea pig assessed as effect on PR interval time at 5 mg/kg, ip measured after 70 mins by ECG analysis (reference value: 58.8 to 63.8 milliseconds); type: toxicity, organism-based; conditions: in vivo
Cavia porcellus [20] = assay: Cardiotoxicity in guinea pig assessed as effect on QRS interval time at 5 mg/kg, ip measured after 10 mins by ECG analysis (reference value: 26.2 to 31.6 milliseconds); type: toxicity, organism-based; conditions: in vivo
Cavia porcellus [21] = assay: Cardiotoxicity in guinea pig assessed as effect on QT interval time at 5 mg/kg, ip measured after 10 mins by ECG analysis (reference value: 127.6 to 131.2 milliseconds); type: toxicity, organism-based; conditions: in vivo
Cavia porcellus [22] = assay: Cardiotoxicity in guinea pig assessed as effect on QTc interval time at 5 mg/kg, ip measured after 60 mins by ECG analysis (reference value: […] to […] milliseconds); type: toxicity, organism-based; conditions: in vivo, 1 h
Cytochrome P450 2C9 = Cytochrome P450 2C9 (Homo sapiens, UniProt P11712); assay: Inhibition of human supersome CYP2C9 using diclofenac as substrate assessed as diclofenac 4'-hydroxylation after 30 mins by HPLC-UV detection; type: ADME
Cytochrome P450 2C9, sequence (P11712 whole entry): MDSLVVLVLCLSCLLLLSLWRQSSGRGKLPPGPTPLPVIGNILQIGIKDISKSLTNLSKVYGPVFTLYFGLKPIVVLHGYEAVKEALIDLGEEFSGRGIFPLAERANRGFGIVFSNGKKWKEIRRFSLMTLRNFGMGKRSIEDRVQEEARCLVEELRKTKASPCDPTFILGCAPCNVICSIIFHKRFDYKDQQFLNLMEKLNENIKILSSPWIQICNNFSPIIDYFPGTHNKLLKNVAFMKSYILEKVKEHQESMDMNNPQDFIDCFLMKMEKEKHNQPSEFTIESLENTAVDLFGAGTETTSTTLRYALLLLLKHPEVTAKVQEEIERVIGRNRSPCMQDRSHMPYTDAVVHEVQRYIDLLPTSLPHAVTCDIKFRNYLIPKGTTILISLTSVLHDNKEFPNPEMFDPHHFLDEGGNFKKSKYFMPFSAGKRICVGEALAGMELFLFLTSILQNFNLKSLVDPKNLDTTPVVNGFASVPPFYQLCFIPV

Rattus norvegicus [23] = organism: Rattus norvegicus; assay: animal or person; conditions: Sprague-Dawley, ip, read-out: MED; remark: listed apart in the source
Description: Antipsychotic activity in ip dosed Sprague-Dawley rat assessed as reduction in PCP-induced hyper-locomotion pretreated for 60 mins followed by PCP addition measured for 30 mins starting 15 min after rat reintroduction to auto-tracks

[24] = Ratio of drug level in brain to plasma in Wistar rat at 3 mg/kg, ip measured after 60 mins by LC-MS/MS analysis; type: ADME, organism-based; conditions: read-out: BPR
Cavia porcellus [25] = assay: Cardiotoxicity in guinea pig assessed as effect on QRS interval time at 5 mg/kg, ip measured after 70 mins by ECG analysis (reference value: 26.2 to 31.6 milliseconds); type: toxicity, organism-based; conditions: in vivo
[26] = target: 5-hydroxytryptamine receptor 7 (Homo sapiens, UniProt P34969); assay: biochemical
5-hydroxytryptamine receptor 7, sequence (P34969 whole entry): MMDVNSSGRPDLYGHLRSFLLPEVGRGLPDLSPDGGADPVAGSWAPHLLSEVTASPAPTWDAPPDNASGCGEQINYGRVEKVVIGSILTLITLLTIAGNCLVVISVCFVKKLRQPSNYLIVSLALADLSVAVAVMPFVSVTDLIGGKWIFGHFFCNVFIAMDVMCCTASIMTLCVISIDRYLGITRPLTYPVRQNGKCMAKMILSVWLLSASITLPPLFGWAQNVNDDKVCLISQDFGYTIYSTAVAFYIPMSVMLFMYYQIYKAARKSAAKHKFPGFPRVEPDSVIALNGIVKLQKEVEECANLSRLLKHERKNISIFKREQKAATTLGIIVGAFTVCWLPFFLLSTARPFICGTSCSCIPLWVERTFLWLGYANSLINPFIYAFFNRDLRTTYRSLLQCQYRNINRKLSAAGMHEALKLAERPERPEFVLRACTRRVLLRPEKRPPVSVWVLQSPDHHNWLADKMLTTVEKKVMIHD
Description: Displacement of [3H]-5-CT from human 5-HT7R expressed in HEK293 cell membranes after 1 hr at 37 degC by microbeta counting method

Cavia porcellus [27] = assay: Cardiotoxicity in guinea pig assessed as effect on frequence of heart rate at 5 mg/kg, ip measured after 20 mins by ECG analysis (reference value: 262 to 296 /min); type: toxicity, organism-based; conditions: in vivo
Cavia porcellus [28] = assay: Cardiotoxicity in guinea pig assessed as effect on QRS interval time at 5 mg/kg, ip measured after 60 mins by ECG analysis (reference value: 26.2 to 31.6 milliseconds); type: toxicity, organism-based; conditions: in vivo, 1 h
Cavia porcellus [29] = assay: Cardiotoxicity in guinea pig assessed as effect on RR interval time at 5 mg/kg, ip measured after 70 mins by ECG analysis (reference value: 208.4 to 238.4 milliseconds); type: toxicity, organism-based; conditions: in vivo
Cavia porcellus [30] = assay: Cardiotoxicity in guinea pig assessed as effect on PR interval time at 5 mg/kg, ip measured after 50 mins by ECG analysis (reference value: 58.8 to 63.8 milliseconds); type: toxicity, organism-based; conditions: in vivo
Cavia porcellus [31] = assay: Cardiotoxicity in guinea pig assessed as effect on RR interval time at 5 mg/kg, ip measured after 20 mins by ECG analysis (reference value: 208.4 to 238.4 milliseconds); type: toxicity, organism-based; conditions: in vivo
Cytochrome P450 2C19 = Cytochrome P450 2C19 (Homo sapiens, UniProt P33261); assay: Inhibition of human supersome CYP2C19 using perazine as substrate assessed as perazine N-demethylation after 30 mins by HPLC-UV detection; type: ADME
Cytochrome P450 2C19, sequence (P33261 whole entry): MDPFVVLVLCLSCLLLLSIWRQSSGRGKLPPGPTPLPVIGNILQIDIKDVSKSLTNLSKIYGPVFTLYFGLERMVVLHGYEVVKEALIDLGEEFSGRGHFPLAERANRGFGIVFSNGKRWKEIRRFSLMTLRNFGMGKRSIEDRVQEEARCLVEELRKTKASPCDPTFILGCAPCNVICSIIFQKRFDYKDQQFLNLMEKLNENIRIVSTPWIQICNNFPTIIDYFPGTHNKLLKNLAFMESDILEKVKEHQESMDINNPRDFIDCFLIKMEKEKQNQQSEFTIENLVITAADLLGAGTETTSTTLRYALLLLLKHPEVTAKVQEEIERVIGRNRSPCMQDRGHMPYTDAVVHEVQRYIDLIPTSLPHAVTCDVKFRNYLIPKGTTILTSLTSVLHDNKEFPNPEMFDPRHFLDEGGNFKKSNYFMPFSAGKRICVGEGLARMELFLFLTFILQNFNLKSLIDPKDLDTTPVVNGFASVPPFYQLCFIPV

Cavia porcellus [32] = assay: Cardiotoxicity in guinea pig assessed as effect on QRS interval time at 5 mg/kg, ip measured after 30 mins by ECG analysis (reference value: 26.2 to 31.6 milliseconds); type: toxicity, organism-based; conditions: in vivo, 0.5 h
[33] = Intrinsic clearance in rat liver microsomes at 20 uM at 37 degC measured after 120 mins in presence of NADPH-regenerating system by UPLC-MS analysis; type: ADME, microsome; conditions: read-out: CLH
Cavia porcellus [34] = assay: Cardiotoxicity in guinea pig assessed as effect on QRS interval time at 5 mg/kg, ip measured after 50 mins by ECG analysis (reference value: 26.2 to 31.6 milliseconds); type: toxicity, organism-based; conditions: in vivo

SMILES: O=S(=O)(c1cncc2ccccc12)N1CCC[C@H]1CCN1CCN(c2cccc3sccc23)CC1
- Time (Cavia porcellus [1]): 267 ms
- Activity (Rattus norvegicus [2]): Non-Toxic
- minimal effective dose (Rattus norvegicus [3]): 1 mg/kg
- Time (Cavia porcellus [4]): 129 ms
- Ki [5]: 9 nM
- Time (Cavia porcellus [6]): 227.2 ms
- Activity (Cavia porcellus [7]): 271 min⁻¹
- inhibition (INH) [8]: Not Active
- Time (Cavia porcellus [9]): 236.6 ms
- Time (Cavia porcellus [10]): 31.2 ms
- Activity (Cavia porcellus [11]): 263 min⁻¹
- minimal effective dose (Rattus norvegicus [12]): 1 mg/kg
- Activity (Rattus norvegicus [13]): Non-Toxic
- Time (Cavia porcellus [14]): 63.8 ms
- Time (Cavia porcellus [15]): 268 ms
- Time (Cavia porcellus [16]): 263.4 ms
- Time (Cavia porcellus [17]): 265 ms
- minimal effective dose (Rattus norvegicus [18]): 3 mg/kg
- Time (Cavia porcellus [19]): 64.2 ms
- Time (Cavia porcellus [20]): 30.8 ms
- Time (Cavia porcellus [21]): 127.4 ms
- Time (Cavia porcellus [22]): 266.6 ms
- IC50 (Cytochrome P450 2C9): > 100000 nM
- minimal effective dose (Rattus norvegicus [23]): 1 mg/kg
- Kp at 1 h [24]: 2.13
- Time (Cavia porcellus [25]): 30.8 ms
- Ki [26]: 19 nM
- Activity (Cavia porcellus [27]): 256 min⁻¹
- Time (Cavia porcellus [28]): 30.4 ms
- Time (Cavia porcellus [29]): 214.8 ms
- Time (Cavia porcellus [30]): 64.2 ms
- Time (Cavia porcellus [31]): 231.2 ms
- IC50 (Cytochrome P450 2C19): > 100000 nM
- Time (Cavia porcellus [32]): 32.4 ms
- microsomal CLint at 20 µM [33]: 2.81 µL/min/mg
- Time (Cavia porcellus [34]): 31.6 ms

SMILES: O=S(=O)(c1cncc2ccccc12)N1CCC[C@H]1CCN1CCN(c2nsc3ccccc23)CC1
- Time (Cavia porcellus [1]): 272.2 ms
- Activity (Rattus norvegicus [2]): Non-Toxic
- minimal effective dose (Rattus norvegicus [3]): 1 mg/kg
- Time (Cavia porcellus [4]): 121.6 ms
- Ki [5]: 13 nM
- Time (Cavia porcellus [6]): 211 ms
- Activity (Cavia porcellus [7]): 287 min⁻¹
- inhibition (INH) [8]: Active
- Time (Cavia porcellus [9]): 202 ms
- Time (Cavia porcellus [10]): 27.6 ms
- Activity (Cavia porcellus [11]): 304 min⁻¹
- minimal effective dose (Rattus norvegicus [12]): 3 mg/kg
- Activity (Rattus norvegicus [13]): Non-Toxic
- Time (Cavia porcellus [14]): 61.8 ms
- Time (Cavia porcellus [15]): 273.4 ms
- Time (Cavia porcellus [16]): 274.2 ms
- Time (Cavia porcellus [17]): 269.6 ms
- minimal effective dose (Rattus norvegicus [18]): 3 mg/kg
- Time (Cavia porcellus [19]): 60.8 ms
- Time (Cavia porcellus [20]): 25.4 ms
- Time (Cavia porcellus [21]): 121.8 ms
- Time (Cavia porcellus [22]): 275.8 ms
- IC50 (Cytochrome P450 2C9): 100000 nM
- minimal effective dose (Rattus norvegicus [23]): 1 mg/kg
- Kp at 1 h [24]: 0.96
- Time (Cavia porcellus [25]): 27.8 ms
- Ki [26]: 9 nM
- Activity (Cavia porcellus [27]): 296 min⁻¹
- Time (Cavia porcellus [28]): 27.2 ms
- Time (Cavia porcellus [29]): 211.4 ms
- Time (Cavia porcellus [30]): 60 ms
- Time (Cavia porcellus [31]): 206 ms
- IC50 (Cytochrome P450 2C19): 50000 nM
- Time (Cavia porcellus [32]): 26.8 ms
- microsomal CLint at 20 µM [33]: 1.73 µL/min/mg
- Time (Cavia porcellus [34]): 27 ms
